In US20220153766A1, “CONDENSED TRICYCLIC COMPOUND USED AS KINASE INHIBITOR” (Hangzhou Innogate Pharma Co., Ltd., priority 2019, published 2022):

Assays:
[1] = target: Ba/F3_EGFR del19/T790M/C797S cells (Homo sapiens, UniProt P00533, T790M/C797S, cells depend on it, form not given); assay: Ba/F3_EGFR (del19-T790M-C797S) cell proliferation inhibition, CTG, method 1; type: cell-based; conditions: 700 cells/well, 72 h, read-out: Ba/F3_EGFR (del19-T790M-C797S) cell proliferation inhibition (IC50 value) Method 1
ALK = ALK (Homo sapiens, UniProt Q9UM73); assay: ALK kinase activity inhibition, Caliper mobility shift assay, method 2; type: biochemical; conditions: ALK 1.25 nM, ATP 30 μM
Method: 2. ALK Kinase Activity Inhibition Experiment:
Method 2: Caliper mobility shift assay was used to measure ALK protein kinase activity. The method is basically the same as method 1, with individual parameters adjusted. The initial concentration of the compound is 1 mM, and sequentially diluted 4-fold to make 6 points (7 points for some individual compounds). Use a dispenser Echo 550 to transfer 250 nL of 100-fold final concentration of the compound to the target plate 3573, add 10 μL ALK with final concentration of 1.25 nM, incubate at room temperature for 10 minutes (the negative control well contains 10 μL kinase buffer and 250 nL 100% DMSO; the positive control well contains 10 μL kinase solution and 250 nL 100% DMSO). On the kinase ALK, add 15 μL of ATP with a final concentration of 30 μM and 3 μM of the substrate peptide No. 22 mixed solution to react for 25 minutes; add 30 μL of stop detection solution containing EDTA to stop the kinase reaction. Use Caliper EZ Reader to read the conversion rate. Inhibition rate %=(Average positive control conversion rate %−Sample conversion rate %/(Average positive control conversion rate %−Average negative control conversion rate %). Among them: negative control wells represent the conversion rate readings without enzyme activity; positive control wells represent the conversion rate readings of wells without compound inhibition. Take the log value of the concentration as the X-axis, and the percentage inhibition rate on the Y-axis. Log (inhibitor) vs. response—Variable slope of analysis software GraphPad Prism 5 was used to fit the curve to obtain the IC50 value of each compound on the enzyme activity. Calculation formula: Y=Bottom+(Top−Bottom)/(1+10^((Log IC50−X)*HillSlope)).

Chain of ALK (Q9UM73 19-1620): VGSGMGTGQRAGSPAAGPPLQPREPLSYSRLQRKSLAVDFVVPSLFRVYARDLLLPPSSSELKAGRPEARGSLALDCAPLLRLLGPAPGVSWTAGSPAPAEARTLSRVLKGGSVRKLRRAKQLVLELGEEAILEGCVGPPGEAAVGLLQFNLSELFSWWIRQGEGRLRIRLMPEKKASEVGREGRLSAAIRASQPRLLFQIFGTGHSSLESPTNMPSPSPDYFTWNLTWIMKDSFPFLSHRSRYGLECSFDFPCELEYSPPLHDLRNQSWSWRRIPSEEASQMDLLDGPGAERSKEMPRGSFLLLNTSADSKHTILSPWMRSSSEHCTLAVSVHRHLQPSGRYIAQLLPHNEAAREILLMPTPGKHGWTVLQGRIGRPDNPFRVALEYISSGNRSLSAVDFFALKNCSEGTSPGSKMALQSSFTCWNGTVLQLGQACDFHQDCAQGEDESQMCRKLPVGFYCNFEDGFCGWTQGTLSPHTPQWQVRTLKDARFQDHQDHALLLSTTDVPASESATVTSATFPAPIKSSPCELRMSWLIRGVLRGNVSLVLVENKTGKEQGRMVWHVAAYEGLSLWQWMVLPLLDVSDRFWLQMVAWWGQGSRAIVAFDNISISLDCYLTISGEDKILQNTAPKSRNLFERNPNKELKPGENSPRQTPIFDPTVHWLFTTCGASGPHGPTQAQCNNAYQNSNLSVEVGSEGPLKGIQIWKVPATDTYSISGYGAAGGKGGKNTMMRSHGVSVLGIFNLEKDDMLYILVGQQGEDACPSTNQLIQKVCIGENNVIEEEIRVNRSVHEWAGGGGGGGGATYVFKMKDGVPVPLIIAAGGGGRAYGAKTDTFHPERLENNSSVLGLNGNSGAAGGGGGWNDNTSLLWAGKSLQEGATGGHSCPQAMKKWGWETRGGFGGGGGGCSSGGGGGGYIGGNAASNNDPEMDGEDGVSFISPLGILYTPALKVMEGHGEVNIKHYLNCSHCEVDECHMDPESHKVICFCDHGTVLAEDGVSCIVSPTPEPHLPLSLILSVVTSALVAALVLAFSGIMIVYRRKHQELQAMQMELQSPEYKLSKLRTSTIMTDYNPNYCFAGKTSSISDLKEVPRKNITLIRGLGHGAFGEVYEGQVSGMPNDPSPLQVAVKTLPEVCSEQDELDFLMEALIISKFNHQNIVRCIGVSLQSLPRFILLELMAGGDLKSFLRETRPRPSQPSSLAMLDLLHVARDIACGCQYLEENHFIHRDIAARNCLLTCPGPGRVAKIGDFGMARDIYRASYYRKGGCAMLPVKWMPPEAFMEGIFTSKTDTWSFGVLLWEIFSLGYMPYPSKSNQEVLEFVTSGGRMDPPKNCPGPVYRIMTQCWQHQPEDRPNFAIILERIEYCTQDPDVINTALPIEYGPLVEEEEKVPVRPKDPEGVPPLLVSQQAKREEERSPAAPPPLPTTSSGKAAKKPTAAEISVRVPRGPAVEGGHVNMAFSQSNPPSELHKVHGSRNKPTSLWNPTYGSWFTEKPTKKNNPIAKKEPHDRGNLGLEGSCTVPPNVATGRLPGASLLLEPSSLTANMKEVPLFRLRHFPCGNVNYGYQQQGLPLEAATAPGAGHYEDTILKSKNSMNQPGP
Chain of Ba/F3_EGFR del19/T790M/C797S cells (P00533 with tags, fused parts or gaps DEL746-750/T790M/C797S, form open): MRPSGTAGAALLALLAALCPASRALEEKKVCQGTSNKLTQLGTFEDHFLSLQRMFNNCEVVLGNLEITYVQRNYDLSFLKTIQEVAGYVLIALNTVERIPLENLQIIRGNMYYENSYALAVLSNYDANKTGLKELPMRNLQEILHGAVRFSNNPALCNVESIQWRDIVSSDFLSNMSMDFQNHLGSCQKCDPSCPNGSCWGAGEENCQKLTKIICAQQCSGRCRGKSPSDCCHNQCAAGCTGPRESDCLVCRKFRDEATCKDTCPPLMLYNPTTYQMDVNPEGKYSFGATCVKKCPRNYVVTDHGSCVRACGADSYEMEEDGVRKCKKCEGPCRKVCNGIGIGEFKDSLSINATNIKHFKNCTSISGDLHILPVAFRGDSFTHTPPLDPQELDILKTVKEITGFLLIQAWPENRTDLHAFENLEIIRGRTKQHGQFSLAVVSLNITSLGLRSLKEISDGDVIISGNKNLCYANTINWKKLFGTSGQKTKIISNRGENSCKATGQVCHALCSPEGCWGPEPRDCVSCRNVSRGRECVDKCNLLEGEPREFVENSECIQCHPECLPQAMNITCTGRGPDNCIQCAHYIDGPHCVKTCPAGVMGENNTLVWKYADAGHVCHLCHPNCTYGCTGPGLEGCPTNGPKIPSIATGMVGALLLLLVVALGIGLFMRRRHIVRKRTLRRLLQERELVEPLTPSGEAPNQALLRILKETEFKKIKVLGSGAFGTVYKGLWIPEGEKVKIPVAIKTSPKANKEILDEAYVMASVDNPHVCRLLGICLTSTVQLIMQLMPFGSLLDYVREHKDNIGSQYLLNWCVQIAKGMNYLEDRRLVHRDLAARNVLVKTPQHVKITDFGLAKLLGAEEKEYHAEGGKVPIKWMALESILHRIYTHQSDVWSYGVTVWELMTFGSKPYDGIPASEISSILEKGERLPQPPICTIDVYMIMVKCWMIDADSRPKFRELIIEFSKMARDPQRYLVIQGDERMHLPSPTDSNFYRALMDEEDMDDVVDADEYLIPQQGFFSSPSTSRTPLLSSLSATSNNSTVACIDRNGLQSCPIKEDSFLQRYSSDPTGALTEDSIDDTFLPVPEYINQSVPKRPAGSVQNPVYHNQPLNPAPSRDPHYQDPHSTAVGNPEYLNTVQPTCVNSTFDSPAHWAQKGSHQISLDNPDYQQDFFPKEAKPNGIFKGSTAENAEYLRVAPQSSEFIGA

## Cc1cc(Nc2ncc(Cl)c(Nc3ccccc3P(C)(C)=O)n2)cc2c1N1CCN(C3CCN(C)CC3)C[C@@H]1CO2 [Compound 27R]
[1]
  GI50: < 20 nM
ALK
  IC50: 1 to 50 nM
